Assay results as given in patent US5322928A, “Diapause hormone isolated from silkworm exhibiting improved diapause activity” (Shionogi Seiyaku Kabushiki Kaisha, priority 1991, dated 1994).
Where no end group is shown, it is not given here.

System: silkworm non-diapause strain (N4 line) pupa
Assay: Assay of bioactivity: specimen injected into 4 days-age pupa of non-diapause strain, percentage of laid eggs that diapause
Assay type: in vivo, silkworm (Bombyx mori)
Conditions: qualitative
Experimental: The hormonal activity was confirmed by the following method: the specimen is injected into the 4 days-age pupa of non-diapause strain. After the pupa transforms into a imago, copulates, and lays eggs, it is investigated whether or not the eggs diapause without embryogenesis. […] In case that the specimen has the hormonal activity, the color of the eggs becomes blackish-brown which is not observed in non-diapausing eggs. […] The hormonal activity is determined by calculating what percentage of the eggs laid by one imago diapauses. One diapause hormone unit is the amount of the hormone which make 50% of the laid eggs diapause. In this invention, the isolated diapause hormone was 0.1 ng/unit.

Substance | diapause hormone activity (hormonal activity in bioassay)
TDMKDESDRGAHSERGALCFGPRL-NH2 [amino acid 19 is Cys] | have diapause activity
TDMKDESDRGAHSERGALWFGPRL-NH2 [amino acid 19 is Trp] | have diapause activity
